Results from patent US5436263A, “Inhibitors of farnesyl-protein transferase” (Merck & Co., Inc., priority 1994, dated 1995).

What was measured:
Ras farnesylation = settings: HMG-CoA reductase inhibitors, Hancock et al., Casey et al., Schafer et al.; cited from earlier work
bovine FPTase = target: T1, bovine FPTase (Bos taurus, UniProt P29702+P49355); assay: In vitro inhibition of Ras farnesyl-protein transferase, partially purified bovine FPTase; type: biochemical; settings: Ras-CVLS substrate, [3H]-FPP, pH 7.4, 31° C., 60 min, concentration giving 50% inhibition of FPTase, read-out: Inhibition of RAS farnesylation IC50, bovine
T1 construct: Farnesyl-protein transferase (FPTase) from bovine brain; from tissue; host or cells: bovine brain
Protocol: The intrinsic farnesyl-protein transferase (FPTase) activity of representative compounds of this invention was measured by the assay as described below:
Farnesyl-protein transferase (FPTase) from bovine brain was chromatographed on DEAE-Sephacel (Pharmacia, 0-0.8M NaCl gradient elution), N-octyl agarose (Sigma, 0-0.6M NaCl gradient elution), and a mono Q HPLC column (Pharmacia, 0-0.3M NaCl gradient). Ras-CVLS (Cys-Val-Leu-Ser) at 3.5 mM, […] [^3 H]FPP, and the indicated compounds were incubated with this partially purified enzyme preparation. The FPTase inhibition data presented below is a measurement of the ability of the test compound to inhibit Ras farnesylation in vitro.
Assays of farnesyl-protein transferase. Partially purified bovine FPTase and Ras peptides (Ras-CVLS, Ras-CVIM and RAS-CAIL) were prepared as described by Schaber et al. J. Biol. Chem. 265:14701-14704 (1990) and Gibbs et al. PNAS U.S.A. 86:6630-6634 (1989), respectively. […] Precipitates were collected onto filter-mats using a TomTec Mach H cell harvestor, washed with 100% ethanol, dried and counted in an LKB β-plate counter. […] Percentage inhibition is measured by the amount of incorporation of farnesyl in the presence of the test compound when compared to the amount of incorporation in the absence of the test compound.

human FPTase = target: T2, human FPTase (Homo sapiens, UniProt P49354+P49356); assay: In vitro inhibition of Ras farnesyl-protein transferase, human FPTase; type: biochemical; settings: 100 nM Ras-CVIM, 0.1% PEG 20,000, 10 μM ZnCl2, 30 min, concentration giving 50% inhibition of FPTase, read-out: Inhibition of RAS farnesylation IC50, human
T2 construct: made in house
Protocol: Inhibitory activity of the compounds of the instant invention may also be measured with an assay employing the recombinant human FPTase obtained as described by C. A. Omer et al. (Biochemistry, 32:5167-5176 (1993)).
Assays of farnesyl-protein transferase. Partially purified bovine FPTase and Ras peptides (Ras-CVLS, Ras-CVIM and RAS-CAIL) were prepared as described by Schaber et al. J. Biol. Chem. 265:14701-14704 (1990) and Gibbs et al. PNAS U.S.A. 86:6630-6634 (1989), respectively. Bovine FPTase was assayed in a volume of […] containing 100 mM N-(2-hydroxy ethyl) piperazine-N'-(2-ethane sulfonic acid) (HEPES), pH 7.4, 5 mM MgCl2, 5 mM dithiothreitol (DTT), […] [^3 H]-farnesyl diphosphate ([^3 H]-FPP; 740 CBq/mmol, New England Nuclear), 650 nM Ras-CVLS and 10 μg/ml FPTase at 31° C. for 60 min. Reactions were initiated with FPTase and stopped with 1 ml of 1.0M HCL in ethanol. Precipitates were collected onto filter-mats using a TomTec Mach H cell harvestor, washed with 100% ethanol, dried and counted in an LKB β-plate counter. The assay was linear with respect to both substrates, FPTase levels and time; less than 10 % of the [^3 H]-FPP was utilized during the reaction period. […] Percentage inhibition is measured by the amount of incorporation of farnesyl in the presence of the test compound when compared to the amount of incorporation in the absence of the test compound. […]

IC50 (bovine FPTase) [nM] | IC50 (human FPTase) [nM] | Structure (SMILES) | Inhibition of Ras farnesylation in vivo (Ras farnesylation)
– | – | CC[C@H](C)C(=O)O[C@H]1C[C@@H](C)C=C2C=C[C@H](C)[C@H](CC[C@@H]3C[C@@H](O)CC(=O)O3)[C@H]21 [lovastatin] | Inhibition of Ras farnesylation in vivo has been demonstrated
1000 | – | COC(=O)C1=CC(COC(C)=O)=COc2oc3cccc(OC(C)=O)c3c(=O)c21 [Compound 2, 7-acetyloxy-3-[(acetyloxy)methyl]-6-oxo-6H-oxepino[2,3-b][1]benzopyran-5-carboxylic acid methyl ester] | –
300 | 2700 | COC(=O)C1=CC(CO)=COc2oc3cccc(O)c3c(=O)c21 [Compound 1, 7-hydroxy-3-(hydroxymethyl)-6-oxo-6H-oxepino[2,3-b][1]benzopyran-5-carboxylic acid methyl ester] | –
– | – | CC[C@H](C)C(=O)O[C@H]1CCC=C2C=C[C@H](C)[C@H](CC[C@@H]3C[C@@H](O)CC(=O)O3)[C@H]21 [compactin] | Inhibition of Ras farnesylation in vivo has been demonstrated
